# “Also recorded” adds a separate entry of the source. Where no end group is shown, it is not given here.
# B1: ATAD2 (protein, UniProt Q6PL18 1-1390, looked up)
# ATPase family AAA …: MVVLRSSLELHNHSAASATGSLDLSSDFLSLEHIGRRRLRSAGAAQKKPAATTAKAGDGSSVKEVETYHRTRALRSLRKDAQNSSDSSFEKNVEITEQLANGRHFTRQLARQQADKKKEEHREDKVIPVTRSLRARNIVQSTEHLHEDNGDVEVRRSCRIRSRYSGVNQSMLFDKLITNTAEAVLQKMDDMKKMRRQRMRELEDLGVFNETEESNLNMYTRGKQKDIQRTDEETTDNQEGSVESSEEGEDQEHEDDGEDEDDEDDDDDDDDDDDDDDEDDEDEEDGEEENQKRYYLRQRKATVYYQAPLEKPRHQRKPNIFYSGPASPARPRYRLSSAGPRSPYCKRMNRRRHAIHSSDSTSSSSSEDEQHFERRRKRSRNRAINRCLPLNFRKDELKGIYKDRMKIGASLADVDPMQLDSSVRFDSVGGLSNHIAALKEMVVFPLLYPEVFEKFKIQPPRGCLFYGPPGTGKTLVARALANECSQGDKRVAFFMRKGADCLSKWVGESERQLRLLFDQAYQMRPSIIFFDEIDGLAPVRSSRQDQIHSSIVSTLLALMDGLDSRGEIVVIGATNRLDSIDPALRRPGRFDREFLFSLPDKEARKEILKIHTRDWNPKPLDTFLEELAENCVGYCGADIKSICAEAALCALRRRYPQIYTTSEKLQLDLSSINISAKDFEVAMQKMIPASQRAVTSPGQALSTVVKPLLQNTVDKILEALQRVFPHAEFRTNKTLDSDISCPLLESDLAYSDDDVPSVYENGLSQKSSHKAKDNFNFLHLNRNACYQPMSFRPRILIVGEPGFGQGSHLAPAVIHALEKFTVYTLDIPVLFGVSTTSPEETCAQVIREAKRTAPSIVYVPHIHVWWEIVGPTLKATFTTLLQNIPSFAPVLLLATSDKPHSALPEEVQELFIRDYGEIFNVQLPDKEERTKFFEDLILKQAAKPPISKKKAVLQALEVLPVAPPPEPRSLTAEEVKRLEEQEEDTFRELRIFLRNVTHRLAIDKRFRVFTKPVDPDEVPDYVTVIKQPMDLSSVISKIDLHKYLTVKDYLRDIDLICSNALEYNPDRDPGDRLIRHRACALRDTAYAIIKEELDEDFEQLCEEIQESRKKRGCSSSKYAPSYYHVMPKQNSTLVGDKRSDPEQNEKLKTPSTPVACSTPAQLKRKIRKKSNWYLGTIKKRRKISQAKDDSQNAIDHKIESDTEETQDTSVDHNETGNTGESSVEENEKQQNASESKLELRNNSNTCNIENELEDSRKTTACTELRDKIACNGDASSSQIIHISDENEGKEMCVLRMTRARRSQVEQQQLITVEKALAILSQPTPSLVVDHERLKNLLKTVVKKSQNYNIFQLENLYAVISQCIYRHRKDHDKTSLIQKMEQEVENFSCSR
# Key:
# [1] = system: Monocyte-derived dendritic cells; type: cell-based, human
# HeLa cells = experiment: Cellular uptake of fluorescent-labeled peptide vaccines, fluorescent microscopy; type: cell-based, human
# Description: Methods: In this experiment, the uptake of two fluorescent-labeled peptide vaccines was examined using a fluorescent microscope in cultured cells. HeLa cells were grown on cover slides for one day and then treated with peptide vaccines. Cells were fixed with 4% paraformaldehyde, washed with PBS, and analyzed with fluorescent microscopy.
# [2] = system: peritoneal tumour biopsies; experiment: Transcriptome analysis of the Murcia patient's peritoneal tumour biopsies; settings: target of 2nd generation personalized vaccines
# Description: All the putative 8-20 amino acids long epitopes were created from these proteins and used for designing the 2nd generation of personalized vaccines according to the invention. […] These antigens have different length and amino acid sequences. All selected peptide antigen contains multiple highly ranked epitopes (13-66) presented on the cell surface by the patient's HLA class I and class II molecules. The range of the potency score is indicated for the selected epitopes. Epitopes presented by the patient's HLA class I and class II molecules are indicated to induce CD8 and CD4 responses, respectively. As described in the invention, the potency of each epitope in the vaccines was calculated and indicated to inform the physician about the predicted efficacy of the personalised vaccines in the recipient.
molecule,measurement,setting,value
Fluoresc-KSS-QYIKANSKFIGITE-RRRRRRRR-LNVPMVATV (fluorescein-KSSQYIKANSKFIGITERRRRRRRRLNVPMVATV),uptake in dendritic cells compared to the control vaccines,[1],substantial increase in the uptake; also recorded: exceptional uptake
"Fluoresc-KSSQYIKANSKFIGITEAAALNVPMVATV-NH2 (fluorescein-KSSQYIKANSKFIGITEAAALNVPMVATV-NH2) [peptide vaccines (CD4-CD8), control peptide vaccine lacking the R8 component, reference compound]",cellular uptake,HeLa cells; 120 minutes,poorly detectable cellular uptake
Fluoresc-KSSQYIKANSKFIGITERRRRRRRRLNVPMVATV-NH2 (fluorescein-KSSQYIKANSKFIGITERRRRRRRRLNVPMVATV-NH2) [vaccine (CD4-R8-CD8)],cellular uptake,HeLa cells; 120 minutes,diffuse distribution throughout the cytoplasm and nucleus
same,cellular uptake compared to the control vaccines,HeLa cells; after 30 minutes and 120 minutes of incubation,substantial increase in the uptake
same,cellular uptake,HeLa cells; within 30 minutes,rapid uptake into both the cytoplasm and nucleus
B1,Relative expression,[2],9
